According to ChEMBL document CHEMBL1150403, “Synthesis of Hsp90 inhibitor dimers as potential antitumor agents” (Bioorg Med Chem, 2008):

What was measured:
Format in all cases: functional, cell-based
MCF7 [1] = assay: Cytotoxicity against human MCF7 cells after 24 hrs; conditions: MCF7, 24 h
SK-BR-3 = assay: Cytotoxicity against human SKBR3 cells after 24 hrs; conditions: SK-BR-3, 24 h
MCF7 [2] = assay: Induction of Her2 degradation in human MCF7 cells by Western blotting analysis

Row | SMILES | IC50 (MCF7 [1]) [nM] | IC50 (SK-BR-3) [µM] | Activity (MCF7 [2])
1 | C#CCCCn1c(Cc2cc(OC)c(OC)c(OC)c2)nc2c(N)ncnc21 | 45900 | 31.8 | –
2 | C[C@@H]1C[C@H]2O[C@@H]2/C=C\C=C\C(=O)Cc2c(Cl)c(O)cc(O)c2C(=O)O1 [RADICICOL] | 89.2 | 0.00364 | –
3 | COc1cc(Cc2nc3c(N)ncnc3n2CCCC#CCNCCCCNCC#CCCCn2c(Cc3cc(OC)c(OC)c(OC)c3)nc3c(N)ncnc32)cc(OC)c1OC | > 100000 | > 100 | –
4 | CO[C@H]1/C=C/C=C(\C)C(=O)NC2=CC(=O)C(NCCCCCCCCCCCCCCCCNC3=C4C[C@@H](C)C[C@H](OC)[C@H](O)[C@@H](C)/C=C(\C)[C@H](OC(N)=O)[C@@H](OC)/C=C/C=C(\C)C(=O)NC(=CC3=O)C4=O)=C(C[C@@H](C)C[C@H](OC)[C@H](O)[C@@H](C)/C=C(\C)[C@@H]1OC(N)=O)C2=O | 431 | 0.15 | –
5 | CO[C@H]1/C=C/C=C(\C)C(=O)NC2=CC(=O)C(NCCCCNC3=C4C[C@@H](C)C[C@H](OC)[C@H](O)[C@@H](C)/C=C(\C)[C@H](OC(N)=O)[C@@H](OC)/C=C/C=C(\C)C(=O)NC(=CC3=O)C4=O)=C(C[C@@H](C)C[C@H](OC)[C@H](O)[C@@H](C)/C=C(\C)[C@@H]1OC(N)=O)C2=O | 1110 | 0.258 | –
6 | COc1cc(Cc2nc3c(N)ncnc3n2CCCC#CCNCCCCCCCCCCCCCCCCNCC#CCCCn2c(Cc3cc(OC)c(OC)c(OC)c3)nc3c(N)ncnc32)cc(OC)c1OC | 1570 | 3.18 | –
7 | COc1cc(Cc2nc3c(N)ncnc3n2CCCC#CCNCCCCCCCCCCCCN)cc(OC)c1OC | 55100 | 13.1 | –
8 | COc1cc(Cc2nc3c(N)ncnc3n2CCCC#CCNCCCCCCCCCCCCNCC#CCCCn2c(Cc3cc(OC)c(OC)c(OC)c3)nc3c(N)ncnc32)cc(OC)c1OC | 4680 | 5.73 | Dose-dependent effect
9 | COc1cc(Cc2nc3c(N)ncnc3n2CCCC#CCO)cc(OC)c1OC | > 100000 | > 100 | –
10 | COc1cc(Cc2nc3c(N)ncnc3n2CCCC#CCNCCCCCCCCCCCCCCCCCCCCNCC#CCCCn2c(Cc3cc(OC)c(OC)c(OC)c3)nc3c(N)ncnc32)cc(OC)c1OC | 1460 | 1.31 | –
11 | CO[C@H]1/C=C/C=C(\C)C(=O)NC2=CC(=O)C(NCCCCCCCCCCCCNC3=C4C[C@@H](C)C[C@H](OC)[C@H](O)[C@@H](C)/C=C(\C)[C@H](OC(N)=O)[C@@H](OC)/C=C/C=C(\C)C(=O)NC(=CC3=O)C4=O)=C(C[C@@H](C)C[C@H](OC)[C@H](O)[C@@H](C)/C=C(\C)[C@@H]1OC(N)=O)C2=O | 628 | 0.296 | –
12 | COc1cc(Cc2nc3c(N)ncnc3n2CCCC#CCNCCCCCCCCNCC#CCCCn2c(Cc3cc(OC)c(OC)c(OC)c3)nc3c(N)ncnc32)cc(OC)c1OC | 30600 | 85.7 | –
